Measurements from PubChem BioAssay AID328 (DTP/NCI, 2004).
Inconclusive results and toxic doses are left out. How the source made its calls: active means survival T/C of 150% or more; inactive means T/C below 125% in these data.

System: BDF1 mice, P388 leukemia ip, median survival T/C
Assay: NCI In Vivo Anticancer Drug Screen. Data for tumor model P388 Leukemia (intraperitoneal) in B6D2F1 (BDF1) mice
Details: endpoint: median survival time, higher = longer survival
How it was run: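 Transplantable tumour in mice; compound vs vehicle dosing; survival scored; ratio of treated to control reported.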

[1] = dose: 12.5 mg/kg/injection, schedule: Q01DX009 (ip), vehicle: Klucel (hydroxypropylcellulose) (HPC)
[2] = dose: 50.0 mg/kg/injection, schedule: Q01DX009 (ip), vehicle: Klucel (hydroxypropylcellulose) (HPC)
[3] = dose: 200.0 mg/kg/injection, schedule: Q01DX009 (ip), vehicle: Klucel (hydroxypropylcellulose) (HPC)
[4] = dose: 25.0 mg/kg/injection, schedule: Q01DX009 (ip), vehicle: saline with Tween-80
[5] = dose: 50.0 mg/kg/injection, schedule: Q01DX009 (ip), vehicle: saline with Tween-80
[6] = dose: 100.0 mg/kg/injection, schedule: Q01DX009 (ip), vehicle: saline with Tween-80
[7] = dose: 200.0 mg/kg/injection, schedule: Q01DX009 (ip), vehicle: saline with Tween-80
[8] = dose: 400.0 mg/kg/injection, schedule: Q01DX009 (ip), vehicle: saline with Tween-80
[9] = dose: 8.0 mg/kg/injection, schedule: Q01DX009 (ip), vehicle: Klucel (hydroxypropylcellulose) (HPC)
[10] = dose: 25.0 mg/kg/injection, schedule: Q01DX009 (ip), vehicle: Klucel (hydroxypropylcellulose) (HPC)
[11] = dose: 100.0 mg/kg/injection, schedule: Q04DX003 (ip), vehicle: Klucel (hydroxypropylcellulose) (HPC)
[12] = dose: 200.0 mg/kg/injection, schedule: Q04DX003 (ip), vehicle: Klucel (hydroxypropylcellulose) (HPC)
[13] = dose: 400.0 mg/kg/injection, schedule: Q04DX003 (ip), vehicle: Klucel (hydroxypropylcellulose) (HPC)

Measured: T/C

CNC(=S)N/N=C/C(C)=N/NC(=S)NC
inactive: dose: 1.6 mg/kg/injection, schedule: Q01DX009 (ip), vehicle: Klucel (hydroxypropylcellulose) (HPC) 113 % of control | dose: 3.12 mg/kg/injection, schedule: Q01DX009 (ip), vehicle: Klucel (hydroxypropylcellulose) (HPC) 104 % of control | [1] 104 % of control | [2] 100 % of control | [3] 100 % of control | dose: 125.0 micrograms/kg/injection, schedule: Q01DX009 (ip), vehicle: saline 109 % of control | dose: 250.0 micrograms/kg/injection, schedule: Q01DX009 (ip), vehicle: saline 109 % of control | dose: 500.0 micrograms/kg/injection, schedule: Q01DX009 (ip), vehicle: saline 109 % of control | dose: 1000.0 micrograms/kg/injection, schedule: Q01DX009 (ip), vehicle: saline 109 % of control

CCOC(=O)C(C(=O)OCC)=C(C)OCC
inactive: dose: 6.25 mg/kg/injection, schedule: Q01DX009 (ip), vehicle: saline with Tween-80 106 % of control | dose: 12.5 mg/kg/injection, schedule: Q01DX009 (ip), vehicle: saline with Tween-80 86 % of control | [4] 97 % of control | dose: 25.0 mg/kg/injection, schedule: Q04DX003 (ip), vehicle: saline with Tween-80 99 % of control | [5] 97 % of control | dose: 50.0 mg/kg/injection, schedule: Q04DX003 (ip), vehicle: saline with Tween-80 107 % of control | [6] 106 % of control | dose: 100.0 mg/kg/injection, schedule: Q04DX003 (ip), vehicle: saline with Tween-80 90 % of control | dose: 200.0 mg/kg/injection, schedule: Q04DX003 (ip), vehicle: saline with Tween-80 107 % of control

C(=C/c1ccnc2ccccc12)/c1cccs1
inactive: [4] 102 % of control | [5] 110 % of control | [6] 111 % of control | [7] 119 % of control

C=CCn1c(=S)[nH]c2ccccc2c1=O
inactive: [6] 100 % of control | [7] 95 % of control | [8] 100 % of control

O=S(=O)(F)c1cc(C[P+](c2ccccc2)(c2ccccc2)c2ccccc2)ccc1Cl
inactive: dose: 2.0 mg/kg/injection, schedule: Q01DX009 (ip), vehicle: saline with Tween-80 109 % of control | [9] 118 % of control | dose: 8.0 mg/kg/injection, schedule: Q01DX009 (ip), vehicle: saline + alcohol 123 % of control | dose: 12.0 mg/kg/injection, schedule: Q01DX009 (ip), vehicle: saline + alcohol 115 % of control | dose: 18.0 mg/kg/injection, schedule: Q01DX009 (ip), vehicle: saline + alcohol 123 % of control | [4] 110 % of control

Cc1cc(C)nc(NS(=O)(=O)c2ccc(NC(=O)C(Cl)(Cl)Cl)cc2)n1
inactive: dose: 100.0 mg/kg/injection, schedule: Q01DX005 (ip), vehicle: saline with Tween-80 93 % of control | dose: 200.0 mg/kg/injection, schedule: Q01DX005 (ip), vehicle: saline with Tween-80 88 % of control

CN1C(=O)C(=Cc2ccc(N(C)C)cc2)C(=O)N(C)C1=O
inactive: [5] 103 % of control | [6] 99 % of control | [7] 98 % of control

C/C=C1/C(=O)O[C@]23C=C[C@@H]4C(C(=O)OC)=CO[C@H](O[C@@H]12)[C@@H]43
inactive: dose: 0.27 mg/kg/injection, schedule: Q01DX009 (ip), vehicle: saline 110 % of control | dose: 0.55 mg/kg/injection, schedule: Q01DX009 (ip), vehicle: saline 110 % of control | dose: 1.1 mg/kg/injection, schedule: Q01DX009 (ip), vehicle: saline 110 % of control | dose: 2.2 mg/kg/injection, schedule: Q01DX009 (ip), vehicle: saline 110 % of control | dose: 165.0 micrograms/kg/injection, schedule: Q01DX009 (ip), vehicle: Klucel (hydroxypropylcellulose) (HPC) 115 % of control | dose: 310.0 micrograms/kg/injection, schedule: Q01DX009 (ip), vehicle: Klucel (hydroxypropylcellulose) (HPC) 115 % of control | dose: 1250.0 micrograms/kg/injection, schedule: Q01DX009 (ip), vehicle: Klucel (hydroxypropylcellulose) (HPC) 115 % of control

Cc1ccc(C(c2ccc(C)cc2)C(Cl)(Cl)Cl)cc1
inactive: dose: 100.0 mg/kg/injection, schedule: Q01DX001 (ip), vehicle: saline sonified 100 % of control | dose: 200.0 mg/kg/injection, schedule: Q01DX001 (ip), vehicle: saline sonified 100 % of control | dose: 400.0 mg/kg/injection, schedule: Q01DX001 (ip), vehicle: saline sonified 90 % of control

COc1ccc(CCCC(=O)O)cc1OC
inactive: [5] 108 % of control | [6] 105 % of control | [7] 103 % of control

Cc1ccc(NC(=O)NCC2(C)CC(NC(=O)Nc3ccc(C)cc3)CC(C)(C)C2)cc1 (stereo unspecified)
inactive: [1] 100 % of control | [10] 100 % of control | [2] 100 % of control | dose: 75.0 mg/kg/injection, schedule: Q01DX009 (ip), vehicle: Klucel (hydroxypropylcellulose) (HPC) 90 % of control | dose: 115.0 mg/kg/injection, schedule: Q01DX009 (ip), vehicle: Klucel (hydroxypropylcellulose) (HPC) 90 % of control | dose: 170.0 mg/kg/injection, schedule: Q01DX009 (ip), vehicle: Klucel (hydroxypropylcellulose) (HPC) 90 % of control

CCCCCc1ccc2oc(=O)c3ccc(C)cc3c2c1O
inactive: dose: 1.5 mg/kg/injection, schedule: Q01DX009 (ip), vehicle: Klucel (hydroxypropylcellulose) (HPC) 95 % of control | dose: 3.0 mg/kg/injection, schedule: Q01DX009 (ip), vehicle: Klucel (hydroxypropylcellulose) (HPC) 104 % of control | dose: 6.0 mg/kg/injection, schedule: Q01DX009 (ip), vehicle: Klucel (hydroxypropylcellulose) (HPC) 104 % of control | dose: 6.25 mg/kg/injection, schedule: Q01DX009 (ip), vehicle: Klucel (hydroxypropylcellulose) (HPC) 92 % of control | [11] 100 % of control | [12] 100 % of control | [13] 95 % of control

Cc1cc(C)c2c(=O)[nH][nH]c2n1
inactive: [6] 96 % of control | [7] 100 % of control | [8] 94 % of control

COC(=O)c1ccccc1OP(=O)(N(C)C)N(C)C
inactive: [5] 94 % of control | [6] 110 % of control | [7] 105 % of control

O=C(NC(COC(=O)C(Cc1ccccc1)NC(=O)c1ccccc1)Cc1ccccc1)c1ccccc1 (stereo unspecified)
inactive: dose: 4.0 mg/kg/injection, schedule: Q01DX009 (ip), vehicle: Klucel (hydroxypropylcellulose) (HPC) 102 % of control | [9] 104 % of control | dose: 16.0 mg/kg/injection, schedule: Q01DX009 (ip), vehicle: Klucel (hydroxypropylcellulose) (HPC) 93 % of control | dose: 32.0 mg/kg/injection, schedule: Q01DX009 (ip), vehicle: Klucel (hydroxypropylcellulose) (HPC) 98 % of control

CC1CCCC/C1=N/NC(N)=O (stereo unspecified)
inactive: [1] 95 % of control | [10] 95 % of control | [2] 91 % of control | dose: 100.0 mg/kg/injection, schedule: Q01DX009 (ip), vehicle: Klucel (hydroxypropylcellulose) (HPC) 104 % of control | [11] 100 % of control | [3] 86 % of control | [12] 95 % of control | [13] 95 % of control

Cc1ccc(S(=O)(=O)c2ccc([N+](=O)[O-])c3no[n+]([O-])c23)cc1
inactive: [4] 104 % of control | [5] 108 % of control | [6] 116 % of control

COc1ccc(CC(C(=O)O)C(Cc2ccc(OC)c(OC)c2)C(=O)O)cc1OC (stereo unspecified)
inactive: [11] 109 % of control | [12] 100 % of control | [13] 109 % of control
